# In PubChem BioAssay (NCI):
#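 1) Cells in 96-well plates. 2) Compound, 48 h, 5 concentrations. 3) Linear interpolation between surrounding doses. 4) Unreached endpoint = highest concentration. At the TGI there is no net growth.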
# What was measured:
# Test in all cases: DTP human tumour cell line panel, 48 h
# 786-0 renal = system: 786-0 renal
# A498 renal = system: A498 renal
# A549 NSCLC = system: A549 NSCLC
# ACHN renal = system: ACHN renal
# CAKI-1 renal = system: CAKI-1 renal
# CCRF-CEM leukemia = system: CCRF-CEM leukemia
# COLO 205 colon = system: COLO 205 colon
# DLD-1 colon = system: DLD-1 colon
# DMS 114 small cell lung = system: DMS 114 small cell lung
# DMS 273 small cell lung = system: DMS 273 small cell lung
# EKVX NSCLC = system: EKVX NSCLC
# HCC-2998 colon = system: HCC-2998 colon
# HCT-116 colon = system: HCT-116 colon
# HCT-15 colon = system: HCT-15 colon
# HL-60(TB) leukemia = system: HL-60(TB) leukemia
# HOP-18 NSCLC = system: HOP-18 NSCLC
# HOP-62 NSCLC = system: HOP-62 NSCLC
# HOP-92 NSCLC = system: HOP-92 NSCLC
# HT29 colon = system: HT29 colon
# IGROV1 ovarian = system: IGROV1 ovarian
# K-562 leukemia = system: K-562 leukemia
# KM12 colon = system: KM12 colon
# KM20L2 colon = system: KM20L2 colon
# LOX IMVI melanoma = system: LOX IMVI melanoma
# LXFL 529 NSCLC = system: LXFL 529 NSCLC
# M14 melanoma = system: M14 melanoma
# MALME-3M melanoma = system: MALME-3M melanoma
# MOLT-4 leukemia = system: MOLT-4 leukemia
# NCI-H226 lung = system: NCI-H226 lung
# NCI-H23 lung = system: NCI-H23 lung
# NCI-H460 lung = system: NCI-H460 lung
# NCI-H522 lung = system: NCI-H522 lung
# OVCAR-3 ovarian = system: OVCAR-3 ovarian
# OVCAR-4 ovarian = system: OVCAR-4 ovarian
# OVCAR-5 ovarian = system: OVCAR-5 ovarian
# OVCAR-8 ovarian = system: OVCAR-8 ovarian
# RPMI-8226 leukemia = system: RPMI-8226 leukemia
# RXF 393 renal = system: RXF 393 renal
# RXF-631 renal = system: RXF-631 renal
# SF-268 CNS = system: SF-268 CNS
# SF-295 CNS = system: SF-295 CNS
# SF-539 CNS = system: SF-539 CNS
# SK-MEL-2 melanoma = system: SK-MEL-2 melanoma
# SK-MEL-28 melanoma = system: SK-MEL-28 melanoma
# SK-MEL-5 melanoma = system: SK-MEL-5 melanoma
# SK-OV-3 ovarian = system: SK-OV-3 ovarian
# SN12C renal = system: SN12C renal
# SNB-19 CNS = system: SNB-19 CNS
# SNB-75 CNS = system: SNB-75 CNS
# SNB-78 CNS = system: SNB-78 CNS
# SW-620 colon = system: SW-620 colon
# TK-10 renal = system: TK-10 renal
# U251 CNS = system: U251 CNS
# UACC-257 melanoma = system: UACC-257 melanoma
# UACC-62 melanoma = system: UACC-62 melanoma
# UO-31 renal = system: UO-31 renal
# M19-MEL melanoma = system: M19-MEL melanoma
smiles,measurement,setting,value
Cc1ccc(CC(C)N)cc1 (centres undefined),TGI,786-0 renal,> 100 µM
same,TGI,A498 renal,> 100 µM
same,TGI,A549 NSCLC,> 100 µM
same,TGI,ACHN renal,> 100 µM
same,TGI,CAKI-1 renal,> 100 µM
same,TGI,CCRF-CEM leukemia,> 100 µM
same,TGI,COLO 205 colon,> 100 µM
same,TGI,DLD-1 colon,> 100 µM
same,TGI,DMS 114 small cell lung,> 100 µM
same,TGI,DMS 273 small cell lung,> 100 µM
same,TGI,EKVX NSCLC,> 100 µM
same,TGI,HCC-2998 colon,> 100 µM
same,TGI,HCT-116 colon,> 100 µM
same,TGI,HCT-15 colon,> 100 µM
same,TGI,HL-60(TB) leukemia,> 100 µM
same,TGI,HOP-18 NSCLC,> 100 µM
same,TGI,HOP-62 NSCLC,> 100 µM
same,TGI,HOP-92 NSCLC,> 100 µM
same,TGI,HT29 colon,> 100 µM
same,TGI,IGROV1 ovarian,> 100 µM
same,TGI,K-562 leukemia,> 100 µM
same,TGI,KM12 colon,> 100 µM
same,TGI,KM20L2 colon,> 100 µM
same,TGI,LOX IMVI melanoma,> 100 µM
same,TGI,LXFL 529 NSCLC,> 100 µM
same,TGI,M14 melanoma,> 100 µM
same,TGI,MALME-3M melanoma,> 100 µM
same,TGI,MOLT-4 leukemia,> 100 µM
same,TGI,NCI-H226 lung,> 100 µM
same,TGI,NCI-H23 lung,> 100 µM
same,TGI,NCI-H460 lung,> 100 µM
same,TGI,NCI-H522 lung,> 100 µM
same,TGI,OVCAR-3 ovarian,> 100 µM
same,TGI,OVCAR-4 ovarian,> 100 µM
same,TGI,OVCAR-5 ovarian,> 100 µM
same,TGI,OVCAR-8 ovarian,> 100 µM
same,TGI,RPMI-8226 leukemia,> 100 µM
same,TGI,RXF 393 renal,> 100 µM
same,TGI,RXF-631 renal,> 100 µM
same,TGI,SF-268 CNS,> 100 µM
same,TGI,SF-295 CNS,> 100 µM
same,TGI,SF-539 CNS,> 100 µM
same,TGI,SK-MEL-2 melanoma,> 100 µM
same,TGI,SK-MEL-28 melanoma,> 100 µM
same,TGI,SK-MEL-5 melanoma,> 100 µM
same,TGI,SK-OV-3 ovarian,> 100 µM
same,TGI,SN12C renal,> 100 µM
same,TGI,SNB-19 CNS,> 100 µM
same,TGI,SNB-75 CNS,> 100 µM
same,TGI,SNB-78 CNS,> 100 µM
same,TGI,SW-620 colon,> 100 µM
same,TGI,TK-10 renal,> 100 µM
same,TGI,U251 CNS,> 100 µM
same,TGI,UACC-257 melanoma,> 100 µM
same,TGI,UACC-62 melanoma,> 100 µM
same,TGI,UO-31 renal,> 100 µM
CCCCCCN(N)C(=O)CC#N,TGI,786-0 renal,> 100 µM
same,TGI,A498 renal,> 100 µM
same,TGI,A549 NSCLC,> 100 µM
same,TGI,ACHN renal,> 100 µM
same,TGI,CAKI-1 renal,> 100 µM
same,TGI,CCRF-CEM leukemia,> 100 µM
same,TGI,COLO 205 colon,> 100 µM
same,TGI,DLD-1 colon,> 100 µM
same,TGI,DMS 114 small cell lung,> 100 µM
same,TGI,DMS 273 small cell lung,> 100 µM
same,TGI,EKVX NSCLC,> 100 µM
same,TGI,HCC-2998 colon,> 100 µM
same,TGI,HCT-116 colon,> 100 µM
same,TGI,HCT-15 colon,> 100 µM
same,TGI,HOP-18 NSCLC,> 100 µM
same,TGI,HOP-62 NSCLC,> 100 µM
same,TGI,HOP-92 NSCLC,> 100 µM
same,TGI,HT29 colon,> 100 µM
same,TGI,IGROV1 ovarian,> 100 µM
same,TGI,K-562 leukemia,> 100 µM
same,TGI,KM12 colon,> 100 µM
same,TGI,KM20L2 colon,> 100 µM
same,TGI,LOX IMVI melanoma,> 100 µM
same,TGI,LXFL 529 NSCLC,> 100 µM
same,TGI,M14 melanoma,> 100 µM
same,TGI,M19-MEL melanoma,> 100 µM
same,TGI,MALME-3M melanoma,> 100 µM
same,TGI,MOLT-4 leukemia,> 100 µM
same,TGI,NCI-H226 lung,> 100 µM
same,TGI,NCI-H23 lung,> 100 µM
same,TGI,NCI-H460 lung,> 100 µM
same,TGI,NCI-H522 lung,> 100 µM
same,TGI,OVCAR-3 ovarian,> 100 µM
same,TGI,OVCAR-4 ovarian,> 100 µM
same,TGI,OVCAR-5 ovarian,> 100 µM
same,TGI,OVCAR-8 ovarian,> 100 µM
same,TGI,RPMI-8226 leukemia,58.5 µM
same,TGI,RXF 393 renal,94.8 µM
same,TGI,RXF-631 renal,> 100 µM
same,TGI,SF-268 CNS,> 100 µM
same,TGI,SF-539 CNS,> 100 µM
same,TGI,SK-MEL-28 melanoma,> 100 µM
same,TGI,SK-MEL-5 melanoma,> 100 µM
same,TGI,SK-OV-3 ovarian,> 100 µM
same,TGI,SN12C renal,> 100 µM
same,TGI,SNB-75 CNS,> 100 µM
same,TGI,SNB-78 CNS,> 100 µM
same,TGI,SW-620 colon,> 100 µM
same,TGI,TK-10 renal,> 100 µM
same,TGI,U251 CNS,> 100 µM
same,TGI,UACC-257 melanoma,> 100 µM
same,TGI,UACC-62 melanoma,> 100 µM
same,TGI,UO-31 renal,> 100 µM
